The record followed here is a melting point compilation (Tetko et al.; mined from patent text by program, amines drawn as free bases though some values may be those of a salt).

As a reminder, the melting point is the temperature, or range, at which the solid turns liquid. `CC(C)(C)C(=O)c1ccc(CC(=O)O)cc1` displayed a melting point of 111 to 112 °C.
In turn, `COC(=O)c1ccc(F)c2c1OCC=C2` gave a melting point of 65 to 67 °C.
In the case of `N#Cc1ccc([C@H]2CC[C@H](CCC=O)CC2)cc1` it was 30 °C.
Compound `N#Cc1nc(N)c(-c2ccccc2)nc1C#N` came in with a melting point of 167 to 168 °C.
Compound `Nc1ccc(S(=O)C2=CCCCC2)cc1[N+](=O)[O-]` (stereo unspecified) came in with a melting point of 139 to 140 °C.
The compound `CC1CCC(Nc2c(C#N)c3ccccc3n2C)=CC1=O` (stereo unspecified) yielded a melting point of 194 to 195 °C.
In the case of `COc1ccccc1CC(=O)N1C[C@H]2C(c3ccccc3OC)=CCC(c3ccccc3)(c3ccccc3)[C@H]2C1` it was 142 °C.
As for `CC1(C)CC(O)CC(C)(C)N1Cc1ccccc1`, the melting point was in the range of 151 to 152 °C.
In the case of `CCOC(=O)c1cc2cc(C)cc(C)c2[nH]1` it was 141 to 143 °C; in that of `CC(C)N(Cc1ccccc1)CC(O)COc1cccc2[nH]cc(C=O)c12` (stereo unspecified), 107 to 109 °C; in that of `O=C1c2cccnc2-c2cccnc21`, 158 to 159 °C.
The same measure for `CC(=O)CCSc1cc(C(C)(C)C)c(O)c(C(C)(C)C)c1`: 79 to 81 °C; for `C=CCC(CC=C)(CC=C)c1ccc(-c2nc3cc(C#N)c(C#N)cc3[nH]2)cc1`: 264 to 266 °C.
As to `CC12CCC3c4ccc(O)cc4C(O)C(Sc4ccc(O)cc4)C3C1CCC2O` (stereo unspecified), the melting point fell in the range of 220 to 225 °C.
As to `C/C(=N\O)c1ccc(SSc2ccc(/C(C)=N/O)cn2)nc1`, the melting point was in the range of 200 to 201 °C.
The same measure for `COc1ccc(N2CCCCN(CCCCNC(=O)c3ccc(NC(=O)c4ccc(Cl)cc4)cc3)CC2)c(OC)c1`: 229 °C; for `COc1cc(OC)nc(-c2c(C)[nH]c3c(C)cccc23)n1`: 145 to 147 °C.
The same measure for `COc1ccc(S(=O)(=O)N2CCn3c(c(C(N)=O)c(Cl)c3-c3ccccc3)C2)cc1`: 194 to 195 °C; for `COc1cc(COc2cc(C(=O)O)n(-c3ccccc3)n2)ccc1OCc1nc(-c2ccccc2)oc1C`: 192 to 193 °C; for `COc1ccc(-c2ccc(C#N)cc2)cc1C=O`: 146 to 147 °C.
The same measure for `Cn1ncc(/C=C\C(=O)O)c1-c1ccc(F)cc1`: 205 to 206 °C; for `CS(=O)(=O)c1ccc(-c2cc(C(CCCCCO[N+](=O)[O-])=NO)nn2C2CCCCC2)cc1`: 111 to 113 °C.
In the case of `O=C(CCCCCC(=O)NCCc1c[nH]c2ccccc12)NO`, the melting point lay within 140 to 142 °C.
The same measure for `N#CC(=Cc1ccc[nH]1)c1cccnc1`: 139 to 142 °C; for `CC1=C(N2CC2)C(=O)c2c([nH]c(CO)c2C)C1=O`: 224 to 225 °C.
In the case of `N#Cc1ccc(CC(NC(=O)CC(NS(=O)(=O)c2ccc3ccccc3c2)c2ccccc2)C(=O)N2CCCC2)cc1` (stereo unspecified) it was 195 to 200 °C; in that of `COc1cc(OCc2nc(-c3ccco3)oc2C)ccc1C=O`, 111 to 112 °C; in that of `CN(C)CCc1c[nH]c2ccc(Br)cc12`, 82 to 85 °C.
The same measure for `CC(C)C[C@H](NC(=O)OC(C)(C)C)C(=O)NCCCC(c1ccc(F)cc1)c1ccc(F)cc1`: 50 to 55 °C.
On to `Cc1ccc(-c2c(C(=O)NCc3cc(C(F)(F)F)cc(C(F)(F)F)c3)n(CCO)c(=O)c3ncccc23)cc1`, for which the melting point lay in the range of 123 to 125 °C.
Consider `COc1ccc(N2CCN(c3ccc([N+](=O)[O-])cc3)CC2)nc1`, for which the melting point amounted to 160 °C.
The same measure for `CN(C)CC1CCCCN1CCCNC(=O)N1c2ccccc2NC(=O)c2ccccc21` (stereo unspecified): 131 to 133 °C.
`CCOC(Cc1ccc(OCc2nc(C(C)(C)C)oc2C)c2ccccc12)C(=O)O` (stereo unspecified) registered a melting point of 185 to 186 °C.
Consider `O=C(c1cc([N+](=O)[O-])ccc1Nc1ccncc1)N1CCCCC1`, for which the melting point lay in the range of 194 to 196 °C.
The same measure for `O=c1c2ccccc2sc2cc(OCC3CO3)cc(O)c12` (stereo unspecified): 161 °C.
`COc1ccccc1-c1nc2cc(C)ccc2c(=O)[nH]1` showed a melting point of 165 to 170 °C.
